{
  "source": "patent US20230285409A1",
  "about": "“METHODS OF USING RHO KINASE INHIBITORS TO TREAT VASCULAR DEMENTIA” (Woolsey Pharmaceuticals, Inc., priority 2020, published 2023)",
  "origin": "cited, not measured here",
  "key": {"[1]": {"conditions": "in vivo, 1-hydroxy metabolite; cited from earlier work"}, "[2]": {"biological_target": "p38 mitogen-activated protein kinase (Homo sapiens, UniProt Q16539)", "sequence (Q16539 whole entry)": "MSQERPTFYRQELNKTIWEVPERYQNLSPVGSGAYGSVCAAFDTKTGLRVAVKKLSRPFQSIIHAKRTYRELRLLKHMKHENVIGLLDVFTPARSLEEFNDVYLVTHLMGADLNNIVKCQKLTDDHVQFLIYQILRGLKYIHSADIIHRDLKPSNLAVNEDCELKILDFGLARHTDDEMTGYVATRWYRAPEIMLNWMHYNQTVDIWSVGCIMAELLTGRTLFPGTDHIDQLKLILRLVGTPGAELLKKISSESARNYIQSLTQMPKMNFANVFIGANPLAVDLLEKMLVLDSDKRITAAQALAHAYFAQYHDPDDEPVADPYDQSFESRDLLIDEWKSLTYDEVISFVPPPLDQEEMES", "conditions": "cited from earlier work"}, "[3]": {"system": "patients with wandering due to VaD", "conditions": "cited from earlier work"}, "[4]": {"system": "triple transgenic mice", "conditions": "30 mg/kg and 100 mg/kg in water, 10 or 12 months of age; cited from earlier work"}, "[5]": {"system": "streptozotocin rats", "conditions": "5 and 10 mg/kg/day intraperitoneally; cited from earlier work"}, "[6]": {"system": "triple transgenic mouse model (APP Swedish, MAPT P301L, and PSEN1 M146V)", "conditions": "10 mg/kg/day intraperitoneally; cited from earlier work"}, "[7]": {"system": "VaD patients", "conditions": "cited from earlier work"}, "[8]": {"system": "APP/PS1 transgenic mice", "conditions": "5 and 10 mg/kg/day intraperitoneally; cited from earlier work"}},
  "note": "Structures can show the parent of a compound that is named as a salt.",
  "data": [
    {"compound": "O=S(=O)(c1cccc2c(O)nccc12)N1CCCNCC1", "note": "[M3]", "values": [
      {"measurement": "half-life", "setting": "[1]", "result": "about 8 hours"}
    ]},
    {"compound": "O=c1ncn2nc(Sc3ccc(F)cc3F)ccc2c1-c1c(Cl)cccc1Cl", "note": "[Neflamapimod]", "values": [
      {"measurement": "primary endpoint of improving episodic memory", "setting": "[2]; Phase 2", "result": "failed its primary endpoint"},
      {"measurement": "tau in the cerebrospinal fluid", "setting": "[2]; Phase 2", "result": "reducing tau"},
      {"measurement": "Aβ deposition", "setting": "[2]; in humans", "result": "no effect on Aβ deposition"}
    ]},
    {"compound": "O=S(=O)(c1cccc2cnccc12)N1CCCNCC1", "note": "[fasudil, Hexahydro-1-(5-Isoquinolinesulfonyl)-1H-1,4-Diazepine Monohydrochloride Hemihydrate]", "values": [
      {"measurement": "cognitive improvements (MMSE)", "setting": "[3]; 30 mg and 60 mg per day, case studies", "result": "about 3 points"},
      {"measurement": "dose response", "setting": "[3]; 30 mg and 60 mg per day", "result": "no dose response"},
      {"measurement": "spatial orientation", "setting": "[3]; case studies", "result": "no improvement in spatial orientation"},
      {"measurement": "wandering symptoms", "setting": "[3]; patient with Binswanger-type cerebral infarction, within weeks of beginning treatment", "result": "wandering symptoms disappeared"},
      {"measurement": "spatial memory", "setting": "[4]", "result": "did not observe improvements in spatial memory"},
      {"measurement": "latency distance and quadrant time in the Morris water maze", "setting": "[5]", "result": "improved"},
      {"measurement": "ß-amyloid plaques in vivo", "setting": "[6]", "result": "reduce ß-amyloid plaques"},
      {"measurement": "MMSE differential versus control", "setting": "[7]; 30 mg iv daily, control intravenous ligustrazine", "result": 7, "unit": "point"},
      {"measurement": "improvement in MMSE over baseline", "setting": "[7]; 30 mg iv infusion daily, 2 weeks, 2 days off, 2 more weeks, mean or median unclear", "result": 9, "unit": "point"},
      {"measurement": "ADL score after treatment", "setting": "[7]; after treatment, baseline 54, >26 functionally impaired", "result": 36},
      {"measurement": "MMSE score after treatment", "setting": "[7]; after treatment, baseline mean about 17", "result": "~27"},
      {"measurement": "latency distance and quadrant time in the Morris water maze", "setting": "[8]", "result": "improved"}
    ]}
  ]
}
